Where two headings read alike, the source gives them in different places.
What was measured:
[1] = Bi-directional Caco-2 permeability; type: in vitro ADME; settings: human
Protocol: Bi-directional Caco-2 permeability was assayed. Caco-2 cells were seeded onto permeable polycarbonate supports and allowed to differentiate for about 3 weeks prior to being used in the assays. The cells were then exposed to the compounds from either the apical or basolateral sides and incubated at 37 C for up to 90 minutes under light agitation. Compound transport was then measured using LC/MS/MS analysis at 30, 60, and 90 minutes.

[2] = tested on: WI-38 cells (AID negative); experiment: Primary screening cell killing assay repeated in AID negative cells; type: cell-based, Human
Protocol: (§1) Primary screening was a phenotypic screen that utilized the synthetic lethal interaction between AID and RAD51 to identify compounds that were both potent and on target. AID expressing cells are dependent upon RAD51 for survival; inhibiting RAD51 in AID positive cells results in a cytotoxic effect.
Percent cell death and EC50 values were calculated by comparing the cell viability of the compound treated wells to the non-treated wells. Normalized RLU values were obtained by subtracting the media well values from each of the wells in the same column, and then dividing that value by the DMSO treated cells values. The percent kill was then calculated by subtracting the normalized RLU value from 1 and multiplying by 100. The average normalized percent kill value and standard error of the mean was then calculated. The kill values were then inputted into Prism with the corresponding standard errors. In Prism a non-linear regression line was plotted with the data points using a semi-log scale, and the EC50 value was calculated.
The activity of the claimed compounds was measured in a variety of cell lines with different expression levels of activation induced cytidine deaminase (AICDA). The potency assay was repeated in all of the listed cell lines and the EC50 values recorded.

[3] = tested on: Daudi cell line (AID positive); experiment: Primary screening cell killing assay (Cell-Titer Glo, Day 7); type: cell-based; settings: Homo sapiens
Protocol: as §1
(§2) The first step was to set up a cell killing assay in the Daudi cell line (AID positive). A 96 well u-bottom plate was prepared by writing the experiment number, plate number, date and initials in the top right corner of the plate lid. With a sterile 300 ml reservoir, and 25 ml serological pipette, evaporation buffer media was pipetted into reservoir in 25 ml increments. Using the liquid handler, 150 ul of evaporation buffer media was pipetted from reservoir into rows A and H, and Columns 1 and 12 of the 96 well u-bottom plate. Cell cultures were counted to obtain the density of cells per ml, and the culture viability. The cell density information was used to obtain 1,000,000 cells from culture using a 5 mL serological pipette into an epi tube. The cell density information from the culture was used to calculate the number of cells and volume of media needed for the assay to seed 1250 cells in 130 ul of media per available culture well in the 96 well u-bottom plate. Rows B through F were used for cells (50 wells in total), with row G left for an empty media control. The calculation was overestimated by 10 mL to account for the dead volume in the 300 ml reservoir. Once the media volume was calculated, the appropriate volume of media was pipetted in 25 mL increments into the 250 mL bottle using a 25 mL serological pipette. The 250 ml bottle was capped tightly, and placed into a 37° C. water bath for 2 minutes. While the culture media was warming, 10 mL of fresh media was pipetted from the 500 mL culture media bottle into a sterile 25 mL reservoir. Using the Eppendorf multichannel pipette, 130 ul of media was piptted from the 25 mL reservoir into row G of the 96 well u-bottom plate. Once the 250 mL bottle of media was warmed, the volume of culture needed was pipetted into the bottle, and mixed gently with a 25 mL serological pipette as to not create bubbles, and then the contents of the bottle were pipetted into a new 300 mL reservoir. Using the liquid handler, 130 ul of culture was pipetted from the 300 mL reservoir into rows B through F of the 96 well u-bottom plate. Once the culture was added, the plate was placed into a 37° C. incubator until the compound master plate was prepared for use.
(§3) Two 96 well u-bottom plates were prepared by writing the master plate name in the upper right corner of the plate lid. Labeling one DMSO master and the other Media Master. The compounds of interest were obtained from the laboratory freezer, and placed into a 25 well storage box with a lid, and set the box aside. The compounds were vortexed after thawing but before use. Using an automatic multichannel pipette, 20 ul of 100% DMSO was pipetted into wells B3-B11 through G3-G11 of the DMSO master plate. For each compound on the master plate, 50 ul of the compound were pipetted in the appropriate well of row 2 (reference plate map to determine appropriate well). A serial dilution was prepared beginning by aspirating 20 ul from row 2 and mixing with row 3, repeating until row 11 was reached. Using the liquid handler, 194 ul of Daudi media was dispensed into wells B2-B11 through G2-G11 of the Media master plate. Using the liquid handler, 6 ul from the DMSO master plate was aspirated and dispensed into the media master plate, mixing 100 ul twice.
Compounds from master plate were then added to the culture plate. The culture plates were removed from the incubator, and set inside the biosafety cabinet. Using a liquid handler, 20 ul from wells B2 to B11 through G2 to G11 of master plate were aspirated, and dispensed into wells B2 to B11 through G2 to G11 of culture plate. This set was continued with each culture plate. […]

[4] = Human liver microsome stability; type: in vitro ADME; settings: for Human Liver Microsome Stability Half Life: 37° C., 45 minutes incubation; for Human Liver Microsome Stability % QH: percentage of hepatic blood flow
Protocol: The stability of the claimed compounds was determined in the presences of human liver microsomes. The compounds were incubated with the microsomes at 37° C. for 45 minutes. Samples were analyzed using LC-MS/MS. Data analysis included half-life, clearance rate, and the percentage of hepatic blood flow (% QH) for each of the compounds in the different species.

[5] = Pharmacokinetic (PK) study; type: in vivo, Rat; settings: po @ 80 mg/kg (30% PEG400, 10% Vitamin E TPGS in water)
Protocol: PK studies in mice were used to determine the fate of the compounds in a whole organism. Rats were treated with the compounds either orally of via IV at the indicated doses and followed for up to 24 hours. Plasma samples were taken at different time points and analyzed by LC-MS.

[6] = tested on: ARPE19/HPV16 (HPV Immortalized RPE); experiment: Cell line screen (potency assay); type: cell-based; settings: ARPE-19, AICDA expression Negative
Protocol: as §2, §3
(§4) Compounds from master plate were then added to the culture plate. The culture plates were removed from the incubator, and set inside the biosafety cabinet. Using a liquid handler, 20 ul from wells B2 to B11 through G2 to G11 of master plate were aspirated, and dispensed into wells B2 to B11 through G2 to G11 of culture plate. This set was continued with each culture plate. Once the culture plates acquired their 20 ul of compound dilutions, they were placed back into the incubator, until their reads on Day 7 of experiment. Cell death was measured on Day 7 of the experiment using Cell-Titer Glo and a Promega Plate reader. […]

KYSE-510 (Head and Neck) = experiment: Cell line screen (potency assay); type: cell-based; settings: Homo sapiens, AICDA expression Negative
Protocol: as §2, §3, §4

CCRF-SB (Leukemia) = experiment: Cell line screen (potency assay); type: cell-based; settings: Homo sapiens, AICDA expression High
Protocol: as §2, §3, §4

TOV-1120D (Ovary) = experiment: Cell line screen (potency assay); type: cell-based; settings: AICDA expression Negative
Protocol: as §2, §3, §4

U-698-M (Lymphoma) = experiment: Cell line screen (potency assay); type: cell-based; settings: AICDA expression High
Protocol: as §2, §3, §4

WSU-FSCCL (Lymphoma) = experiment: Cell line screen (potency assay); type: cell-based; settings: AICDA expression Negative
Protocol: as §2, §3, §4

KG-1 (Leukemia) = experiment: Cell line screen (potency assay); type: cell-based; settings: AICDA expression Negative
Protocol: as §2, §3, §4

KYSE-70 (Head and Neck) = experiment: Cell line screen (potency assay); type: cell-based; settings: Homo sapiens, AICDA expression Low
Protocol: as §2, §3, §4

OV56 (Ovary) = experiment: Cell line screen (potency assay); type: cell-based; settings: AICDA expression Low
Protocol: as §2, §3, §4

[7] = Caco-2, apical to basolateral, read-out: AB Recovery %
[8] = Caco-2, basolateral to apical, read-out: BA Recovery %
[9] = Homo sapiens, WI-38 cells (AID negative), read-out: AID− EC50
[10] = 168 h, Daudi cells (AID positive), cell death on Day 7, read-out: AID+ EC50
[11] = WI-38 (Normal Human Lung Fibroblast), AICDA expression Negative, read-out: EC50
[12] = Daudi (Lymphoma), AICDA expression High, read-out: EC50

recovery at 90 min [1, 7] [%]	recovery at 90 min [1, 8] [%]	SMILES	EC50 [2, 9] [µM]	EC50 [3, 10] [µM]	Human Liver Microsome Stability Half Life [4] [h]	Human Liver Microsome Stability % QH [4] [%]	F (%) @ 5 mg/kg ([5]; Rat Female) [%]	T1/2 ([5]; Rat Female) [h]	F (%) @ 5 mg/kg ([5]; Rat Male) [%]	T1/2 ([5]; Rat Male) [h]	EC50 [2, 11] [µM]	EC50 [3, 12] [µM]	EC50 [6] [µM]	EC50 (KYSE-510 (Head and Neck)) [µM]	EC50 (CCRF-SB (Leukemia)) [µM]	EC50 (U-698-M (Lymphoma)) [µM]	EC50 (WSU-FSCCL (Lymphoma)) [µM]	EC50 (KG-1 (Leukemia)) [µM]	EC50 (KYSE-70 (Head and Neck)) [µM]	also measured
59.9	87.2	CC(C)(C)NS(=O)(=O)c1cc(NC(=O)NCc2ccccc2)ccc1-c1cnc(C2CCC(NC(=O)OC(C)(C)C)CC2)s1 (stereo not drawn) [Compound 10]	> 1	≤ 0.1																Papp A→B ([1]; Caco-2, apical to basolateral, 37 C, up to 90 minutes, read-out: AB Papp (cm/sec × 10^6)): 1.2 ×10⁻⁶ cm/s; Papp B→A ([1]; Caco-2, basolateral to apical, 37 C, up to 90 minutes, read-out: BA Papp (cm/sec × 10^6)): 1.5 ×10⁻⁶ cm/s; efflux ratio ([1]; Caco-2 efflux ratio, read-out: BA/AB Ratio): 1.3
92	107	CC(C)OC(=O)NC1CCC(c2ncc(-c3ccc(NC(=O)NCc4cccc(F)c4)cc3S(=O)(=O)NC(C)(C)C)s2)CC1 (stereo not drawn) [Compound 27]	> 1	≤ 0.1																
79.8	116	CC(C)OC(=O)NC1CCC(c2ncc(-c3ccc(NC(=O)N[C@H](C)c4ccccn4)cc3S(=O)(=O)NC(C)(C)C)s2)CC1 (stereo partly drawn) [Compound 30]	> 1	≤ 0.1																
		CC(C)OC(=O)NC1CCC(c2ncc(-c3ccc(NC(=O)O[C@H](C)c4ccccc4)cc3S(=O)(=O)NC(C)(C)C)s2)CC1 (stereo partly drawn) [Compound 43]	> 1	≤ 1																

SMILES	recovery at 90 min [1, 7] [%]	recovery at 90 min [1, 8] [%]	EC50 [2, 9] [µM]	EC50 [3, 10] [µM]	Human Liver Microsome Stability Half Life [4] [h]	Human Liver Microsome Stability % QH [4] [%]	F (%) @ 5 mg/kg ([5]; Rat Female) [%]	T1/2 ([5]; Rat Female) [h]	F (%) @ 5 mg/kg ([5]; Rat Male) [%]	T1/2 ([5]; Rat Male) [h]	EC50 [2, 11] [µM]	EC50 [3, 12] [µM]	EC50 [6] [µM]	EC50 (KYSE-510 (Head and Neck)) [µM]	EC50 (CCRF-SB (Leukemia)) [µM]	EC50 (U-698-M (Lymphoma)) [µM]	EC50 (WSU-FSCCL (Lymphoma)) [µM]	EC50 (KG-1 (Leukemia)) [µM]	EC50 (KYSE-70 (Head and Neck)) [µM]	also measured
CC(C)OC(=O)N[C@H]1CC[C@H](c2ncc(-c3ccc(NC(=O)NCc4ccccn4)cc3S(=O)(=O)NC(C)(C)C)s2)CC1 [Compound 29]	93.9	90.9	> 1	≤ 0.1	0.342	78.8	8.39	4.66	3.69	3.97	> 10	0.043	> 10	> 10	1.28	0.113	0.067	> 10	4.66	EC50 (TOV-1120D (Ovary)): 9.17 µM; EC50 (OV56 (Ovary)): 9.09 µM
CC(C)OC(=O)N[C@H]1CC[C@H](c2ncc(-c3ccc(NC(=O)NCc4ncccc4F)cc3S(=O)(=O)NC(C)(C)C)s2)CC1 [Compound 31]	70.5	92.3	> 1	≤ 0.1	0.373	77.3	2.77	4.75	1.49	3.79	> 10	0.02	> 10	> 10	2.16	0.031	< 0.04	8.79	4.7	
